From paper PMC4139342, “Pharmacokinetics-Pharmacodynamics Analysis of Bicyclic 4-Nitroimidazole Analogs in a Murine Model of Tuberculosis” (PLoS ONE, 2014)
Converted amounts (≈) assume the structure as drawn. Where two headings read alike, the source gives them in different places.

Columns and labels:
[1] = In vivo plasma PK after intravenous dosing; details: mice; for half-life: female, CD-1, mouse, plasma, iv, T1/2 (i.v)
in vivo [2] = details: female, CD-1, mouse, po
physchem [3] = details: pH 6.8, aqueous buffer, thermodynamic from solid
[4] = In vivo plasma PK after oral dosing in CM-2 formulation; details: female, CD-1, mouse, plasma, po
in vitro [5] = details: human, Caco-2
[6] = Cytotoxicity against THP1 macrophage cell lines; format: cell-based; details: human
[7] = female, CD-1, mouse, in vivo, po
Mtb H37Rv = test: In vivo mouse efficacy, established murine TB model; parameters: species or system Balb/c mice; details: 100 mg/kg oral daily for 4 weeks; for Mean log lung CFU ± SEM / log reduction at 100 mg/kg: 5 animals; for Efficacy compared with PA-824, in words: significance at P<0.05; for log reduction at 100 mg/kg: Mycobacterium tuberculosis, H37RV, po, 672 h, read-out: Mean log lung CFU reduction ± SEM compared to untreated controls
Procedure: In vivo mouse efficacy studies were determined after intranasal infection of Balb/c mice with 10^3 cfu Mtb H37Rv. Treatment was initiated 4 weeks after infection. Compounds were orally administered in CM-2 formulation for 4 weeks daily. Bacterial loads were determined at 2 and 4 weeks post treatment. Statistical analysis was done by a one-way analysis of variance, followed by a multiple comparison analysis of variance by a one-way Tukey test (GraphPad Prism, version 5.02, San Diago, California USA, www.graphpad.com). Differences were considered statistically significant at the 95% level of confidence.

[8] = system: M. tuberculosis (Mtb) (H37Rv, ATCC 27294); test: microbe, parasite or virus in culture; format: cell-based; details: Mycobacterium tuberculosis
[9] = In vivo lung PK after oral dosing; details: female, CD-1, mouse
in vivo [10] = details: female, CD-1, mouse, iv; for clearance: i.v. CL
in vitro [11] = details: mouse, plasma
in vivo [12] = details: female, CD-1, mouse, po; remark: listed apart in the source
physchem [13] = test: physchem
[14] = 10 mg/kg, i.v. dosing at 10 mg/kg
[15] = 10 mg/kg, Lung to Plasma ratio AUC24
[16] = 10 mg/kg, Lung to Plasma ratio Cmax
[17] = 5 mg/kg, i.v. dosing at 5 mg/kg
[18] = 25 mg/kg, Lung to Plasma ratio AUC24
[19] = 25 mg/kg, Lung to Plasma ratio Cmax

| SMILES | half-life [1, 14] | Kp (in vivo [2]; [15]) | Kp (in vivo [2]; [16]) | PAMPA %FA | PAMPA Log Pe | solubility (physchem [3]) | half-life ([4]; 10 mg/kg) | Papp A→B (in vitro [5]) | Papp B→A (in vitro [5]) | efflux ratio (in vitro [5]) | CC50 [6] | Lung AUC24 ([7]; 10 mg/kg) | Lung Cmax ([7]; 10 mg/kg) | Mean log lung CFU ± SEM (Mtb H37Rv) | Efficacy compared with PA-824, in words (Mtb H37Rv) | log reduction at 100 mg/kg (Mtb H37Rv) | MIC99 [8] | half-life ([9]; 10 mg/kg) | Vd (in vivo [10]; 10 mg/kg) | logP (physchem [13]) | also measured |
| --- | --- | --- | --- | --- | --- | --- | --- | --- | --- | --- | --- | --- | --- | --- | --- | --- | --- | --- | --- | --- | --- |
| O=[N+]([O-])c1cn2c(n1)OC[C@@H](NCc1ccc(OC(F)(F)F)cc1)C2 [Amino-824, ((s)-2-nitro-6,7-dihydro-5H-imidazo[2,1-b][1,3]oxazin-6-yl)-(4-trifluoromethoxybenzyl)amine] | 2 h | 0.8 | 0.8 | 91% | –4.8 cm/sec | 127 µg/mL (≈ 354 µM) | 2 h | 35.4 ×10⁻⁶ cm/s | 21 ×10⁻⁶ cm/s | 0.6 | > 10 µg/mL | 4.5 µg·h/g | 1.4 µg/g | 5.14±0.08 log CFU | significantly (P<0.05) less efficacious than PA-824 | 1.08 ± 0.08 | 0.14 µg/mL (≈ 0.391 µM) | 1.3 h | 2.3 L/kg | 2.5 | clearance (in vivo [10]; 10 mg/kg): 20.5 mL/min/kg; fraction unbound (in vitro [11]): 0.2; AUC (in vivo [12]; 10 mg/kg): 6000 ng·h/mL; Cmax (in vivo [12]; 10 mg/kg): 1700 ng/mL; bioavailability (in vivo [12]; 10 mg/kg): 74% |
| O=[N+]([O-])c1cn2c(n1)OC[C@@H](NCCc1ccc(OC(F)(F)F)cc1)C2 [AminoEthyl-824] | < 1 h | 1.8 | 1.6 | 85% | –4.6 cm/sec | 104 µg/mL (≈ 279 µM) | 1.7 h | 18.6 ×10⁻⁶ cm/s | 20.7 ×10⁻⁶ cm/s | 1.1 | > 10 µg/mL | 5.2 µg·h/g | 1.6 µg/g | 4.53±0.07 log CFU | comparable efficacy to PA-824 | 1.69 ± 0.07 | 0.06 µg/mL (≈ 0.161 µM) | 1.2 h | 2 L/kg | 3.6 | T1/2 (i.v) ([1]; i.v. dosing at 10 mg/kg, 10 mg/kg): 0.7 h; clearance (in vivo [10]; 10 mg/kg): 44 mL/min/kg; fraction unbound (in vitro [11]): 0.55; AUC (in vivo [12]; 10 mg/kg): 2900 ng·h/mL; Cmax (in vivo [12]; 10 mg/kg): 1000 ng/mL; bioavailability (in vivo [12]; 10 mg/kg): 76% |
| CC[C@@H]1Oc2nc([N+](=O)[O-])cn2C[C@@H]1OCc1ccc(OC(F)(F)F)cc1 [NI-145] |  |  |  | 99% | –3.85 cm/sec | < 2 µg/mL |  |  |  |  | > 10 µg/mL |  |  |  |  |  | 0.06 µg/mL (≈ 0.155 µM) |  |  | 3.85 | half-life [1, 17]: 2 h; Tmax (in vivo [2]; 25 mg/kg): 2 h; Kp (in vivo [2]; [18]): 2.1; Kp (in vivo [2]; [19]): 2.3; half-life ([4]; 25 mg/kg): 4.2 h; Lung AUC24 ([7]; 25 mg/kg): 34.6 µg·h/g; Lung Cmax ([7]; 25 mg/kg): 4.2 µg/g; half-life ([9]; 25 mg/kg): 4.1 h; Vd (in vivo [10]; 5 mg/kg): 1.7 L/kg; clearance (in vivo [10]; 5 mg/kg): 17 mL/min/kg; AUC (in vivo [12]; 25 mg/kg): 16200 ng·h/mL; Cmax (in vivo [12]; 25 mg/kg): 1800 ng/mL; Tmax (in vivo [12]; 25 mg/kg): 2 h; bioavailability (in vivo [12]; 25 mg/kg): 68% |
| CC[C@@H]1Oc2nc([N+](=O)[O-])cn2C[C@@H]1NCc1ccc(OC(F)(F)F)c(F)c1 [NI-176] |  |  |  | 99% | –3.7 cm/sec | 8 µg/mL (≈ 19.8 µM) |  |  |  |  | > 10 µg/mL |  |  |  |  |  | 0.03 µg/mL (≈ 0.0742 µM) |  |  | 3.5 | half-life [1, 17]: 1 h; Kp (in vivo [2]; [18]): 2.2; Kp (in vivo [2]; [19]): 2.2; half-life ([4]; 25 mg/kg): 4.3 h; Lung AUC24 ([7]; 25 mg/kg): 30.3 µg·h/g; Lung Cmax ([7]; 25 mg/kg): 4.8 µg/g; half-life ([9]; 25 mg/kg): 4.3 h; Vd (in vivo [10]; 5 mg/kg): 1.8 L/kg; clearance (in vivo [10]; 5 mg/kg): 22.2 mL/min/kg; AUC (in vivo [12]; 25 mg/kg): 13700 ng·h/mL; Cmax (in vivo [12]; 25 mg/kg): 2200 ng/mL; bioavailability (in vivo [12]; 25 mg/kg): 86% |
